Experimental data taken from patent publication US20260092061A1, “COMPOUNDS FOR TARGETED PROTEIN DEGRADATION” (Amphista Therapeutics Limited, priority 2022, published 2026).

Molecular target: T1, BRD9 (Homo sapiens, UniProt Q9H8M2)
T1 sequence (Q9H8M2 1-597): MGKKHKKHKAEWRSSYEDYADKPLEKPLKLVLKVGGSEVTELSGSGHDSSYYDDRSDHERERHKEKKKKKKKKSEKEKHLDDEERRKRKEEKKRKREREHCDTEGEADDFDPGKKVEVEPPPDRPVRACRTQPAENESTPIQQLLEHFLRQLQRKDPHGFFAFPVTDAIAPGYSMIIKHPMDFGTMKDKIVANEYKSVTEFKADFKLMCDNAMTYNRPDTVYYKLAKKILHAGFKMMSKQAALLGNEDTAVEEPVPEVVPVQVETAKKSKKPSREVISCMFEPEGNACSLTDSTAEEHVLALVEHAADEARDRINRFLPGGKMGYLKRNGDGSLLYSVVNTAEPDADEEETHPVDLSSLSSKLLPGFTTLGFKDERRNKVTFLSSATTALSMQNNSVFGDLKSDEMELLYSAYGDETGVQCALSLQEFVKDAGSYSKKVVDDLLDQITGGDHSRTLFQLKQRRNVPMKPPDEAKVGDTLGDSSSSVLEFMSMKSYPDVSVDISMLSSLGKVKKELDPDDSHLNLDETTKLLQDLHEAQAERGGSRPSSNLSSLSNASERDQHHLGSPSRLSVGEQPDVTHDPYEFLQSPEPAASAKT
Test: Degradation of BRD9 (IF), immunofluorescence in MV4-11 cells, 24 hours (Assay Protocol 2)
Assay type: cell-based
Set-up: A suspension of MV4-11 cells (ATCC CRL-9591) was prepared; host or cells: MV4-11
Conditions: BRD9 degradation; for DC50: Assay protocol 2, read-out: DC50; for Dmax: MV4-11, Assay protocol 2, read-out: Dmax
How it was run: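 % BRD9 remaining, scaled between DMSO (high) and 100 nM CFT-8634 (low) control wells, derives from mean Alexa 647 contrast in central nuclei by high-content imaging. MV4-11 cells had 24 h compound exposure at 37° C. before PFA fixation, Triton permeabilisation and anti-BRD9 E4Q3F immunostaining.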

Row | Structure (SMILES) | DC50 [nM] | Dmax [%]
1 | COc1cc(-c2cn(C)c(=O)c(C)c2C)cc(OC)c1CN1CCC(COc2cccc3c2CCN(C(=O)/C(C#N)=C/c2cccc(Br)n2)C3C)CC1 (mixture of isomers) [Compound B95, (E/Z)-3-(6-bromopyridin-2-yl)-2-(5-((1-(2,6-dimethoxy-4-(1,4,5-trimethyl-6-oxo-1,6-dihydropyridin-3-yl)benzyl)piperidin-4-yl)methoxy)-1-methyl-1,2,3,4-tetrahydroisoquinoline-2-carbonyl)acrylonitrile] | < 1.25 | 70 to 75
2 | COc1cc(-c2cn(C)c(=O)c(C)c2C)cc(OC)c1C(=O)N1CCC(Oc2cccc3c2CCN(C(=O)/C(C#N)=C/c2cccc(Br)n2)C3C)CC1 (mixture of isomers) [Compound B88, (E/Z)-3-(6-bromopyridin-2-yl)-2-(5-((1-(2,6-dimethoxy-4-(1,4,5-trimethyl-6-oxo-1,6-dihydropyridin-3-yl)benzoyl)piperidin-4-yl)oxy)-1-methyl-1,2,3,4-tetrahydroisoquinoline-2-carbonyl)acrylonitrile] | 10 to 25 | 40 to 70
3 | COc1cc(-c2cn(C)c(=O)c(C)c2C)cc(OC)c1CN1CCN(Cc2cccc3c2CCN(C(=O)/C(C#N)=C/c2cccnc2OC)C3C)CC1 (mixture of isomers) [Compound B70, (E/Z)-2-(5-((4-(2,6-dimethoxy-4-(1,4,5-trimethyl-6-oxo-1,6-dihydropyridin-3-yl)benzyl)piperazin-1-yl)methyl)-1-methyl-1,2,3,4-tetrahydroisoquinoline-2-carbonyl)-3-(2-methoxypyridin-3-yl)acrylonitrile] | – | 40 to 70
4 | COc1cc(-c2cn(C)c(=O)c(C)c2C)cc(OC)c1CN1CCCN(Cc2cccc3c2CCN(C(=O)/C(C#N)=C/C(C)(C)C)[C@@H]3C)CC1 (single isomer, unassigned) [Compound B192, (E/Z)-2-(5-((4-(2,6-dimethoxy-4-(1,4,5-trimethyl-6-oxo-1,6-dihydropyridin-3-yl)benzyl)-1,4-diazepan-1-yl)methyl)-1-methyl-1,2,3,4-tetrahydroisoquinoline-2-carbonyl)-4,4-dimethylpent-2-enenitrile] | 1.25 to 10 | > 75
5 | COc1cc(-c2cn(C)c(=O)c3[nH]ncc23)cc(OC)c1CN1CCN(Cc2cccc3c2CCN(C(=O)/C(C#N)=C/C(C)(C)C)C3C)C2(CC2)C1 (mixture of isomers) [Compound B104, (E/Z)-2-(5-((7-(2,6-dimethoxy-4-(6-methyl-7-oxo-6,7-dihydro-1H-pyrazolo[3,4-c]pyridin-4-yl)benzyl)-4,7-diazaspiro[2.5]octan-4-yl)methyl)-1-methyl-1,2,3,4-tetrahydroisoquinoline-2-carbonyl)-4,4-dimethylpent-2-enenitrile] | < 1.25 | > 75
6 | COc1cc(-c2cn(C)c(=O)c(C)c2C)cc(OC)c1CN1CCN(Cc2cccc3c2CCN(C(=O)/C(C#N)=C/C2(C)CCOC2)C3C)C2(CC2)C1 (mixture of isomers) [Compound B174, (E/Z)-2-(5-((7-(2,6-dimethoxy-4-(1,4,5-trimethyl-6-oxo-1,6-dihydropyridin-3-yl)benzyl)-4,7-diazaspiro[2.5]octan-4-yl)methyl)-1-methyl-1,2,3,4-tetrahydroisoquinoline-2-carbonyl)-3-(3-methyltetrahydrofuran-3-yl)acrylonitrile] | < 1.25 | > 75
7 | COc1cc(-c2cn(C)c(=O)c(C)c2C)cc(F)c1CN1CCN(Cc2ccc3c(c2)[C@@H](C)N(C(=O)/C(C#N)=C/C(C)(C)C)CC3)C2(CC2)C1 (single isomer, unassigned) [Compound C5, (E/Z)-2-(7-((7-(2-fluoro-6-mehtoxy-4-(1,4,5-trimethyl-6-oxo-1,6-dihydropyridin-3-yl)benzyl)-4,7-diazaspiro[2.5]octan-4-yl)methyl)-1-methyl-1,2,3,4-tetrahydroisoquinoline-2-carbonyl)-4,4-dimethylpent-2-enenitrile] | 10 to 25 | > 75
8 | COc1cc(-c2cn(C)c(=O)c(C)c2C)cc(OC)c1CN1CCN(Cc2cccc3c2CCN(C(=O)/C(C#N)=C/C(C)(C)C)C3C)C(=O)C1(C)C (mixture of isomers) [Compound B112, (E/Z)-2-(5-((4-(2,6-dimethoxy-4-(1,4,5-trimethyl-6-oxo-1,6-dihydropyridin-3-yl)benzyl)-3,3-dimethyl-2-oxopiperazin-1-yl)methyl)-1-methyl-1,2,3,4-tetrahydroisoquinoline-2-carbonyl)-4,4-dimethylpent-2-enenitrile] | 10 to 25 | > 75

Now from value to compound:

Row | DC50 [nM] | Dmax [%] | Structure (SMILES)
9 | 25 to 1000 | > 75 | COc1cc(-c2cn(C)c(=O)c(C)c2C)cc(OC)c1CN1CCN(C(=O)c2cccc3c2CCN(C(=O)/C(C#N)=C/C(C)(C)C)C3C)C2(CC2)C1 (mixture of isomers) [Compound C43, (E/Z)-2-(5-(7-(2,6-dimethoxy-4-(1,4,5-trimethyl-6-oxo-1,6-dihydropyridin-3-yl)benzyl)-4,7-diazaspiro[2.5]octane-4-carbonyl)-1-methyl-1,2,3,4-tetrahydroisoquinoline-2-carbonyl)-4,4-dimethylpent-2-enenitrile]
10 | 10 to 25 | 40 to 70 | COc1cc(-c2cn(C)c(=O)c(C)c2C)cc(OC)c1CN1CCN(Cc2ccc3c(c2)[C@H](C)N(C(=O)/C(C#N)=C/C(C)(C)C)CC3)C2(CC2)C1 (single isomer, unassigned) [Compound C36, (E/Z)-2-(7-((7-(2,6-dimethoxy-4-(1,4,5-trimethyl-6-oxo-1,6-dihydropyridin-3-yl)benzyl)-4,7-diazaspiro[2.5]octan-4-yl)methyl)-1-methyl-1,2,3,4-tetrahydroisoquinoline-2-carbonyl)-4,4-dimethylpent-2-enenitrile]
11 | 25 to 1000 | > 75 | COc1cc(-c2cn(C)c(=O)c(C)c2C)cc(OC)c1CN1CC(=O)N(Cc2cccc3c2CCN(C(=O)/C(C#N)=C/C(C)(C)C)C3C)C(C)(C)C1 (stereo not drawn) [Compound C55]
12 | 25 to 1000 | 70 to 75 | COc1cc(-c2cn(C)c(=O)c(C)c2C)ccc1OC1CCC(Cc2cccc3c2CCN(C(=O)/C(C#N)=C/C(C)(C)N2CCN(C)CC2)C3C)CC1 (stereo not drawn) [Compound C50]
13 | 1.25 to 10 | > 75 | COc1cc(-c2cn(C)c(=O)c(C)c2C)cc(OC)c1CN1CCCN(Cc2cccc3c2CCN(C(=O)/C(C#N)=C/C(C)(C)CF)[C@@H]3C(C)C)CC1 (mixture of isomers) [Compound C84, (E/Z)-2-(5-((4-(2,6-dimethoxy-4-(1,4,5-trimethyl-6-oxo-1,6-dihydropyridin-3-yl)benzyl)-1,4-diazepan-1-yl)methyl)-1-isopropyl-1,2,3,4-tetrahydroisoquinoline-2-carbonyl)-5-fluoro-4-dimethylpent-2-enenitrile]
14 | < 1.25 | > 75 | COc1cc(-c2cn(C)c(=O)c(C)c2C)cc(OC)c1CN1CCN(Cc2ccc3c(c2)[C@@H](C)N(C(=O)/C(C#N)=C/C2(OC)CC2)CC3)C2(CC2)C1 (single isomer, unassigned) [Compound C37, (E/Z)-2-(7-((7-(2,6-dimethoxy-4-(1,4,5-trimethyl-6-oxo-1,6-dihydropyridin-3-yl)benzyl)-4,7-diazaspiro[2.5]octan-4-yl)methyl)-1-methyl-1,2,3,4-tetrahydroisoquinoline-2-carbonyl)-3-(1-methoxycyclopropyl)acrylonitrile]
15 | 10 to 25 | 40 to 70 | COc1cc(-c2cn(C)c(=O)c(C)c2C)cc(OC)c1CN1CCCN(c2ccc3c(c2)[C@@H](C)N(C(=O)/C(C#N)=C/C(C)(C)CF)CC3)CC1 (mixture of isomers) [Compound C69, (E/Z)-2-(7-(4-(2,6-dimethoxy-4-(1,4,5-trimethyl-6-oxo-1,6-dihydropyridin-3-yl)benzyl)-1,4-diazepan-1-yl)-1-methyl-1,2,3,4-tetrahydroisoquinoline-2-carbonyl)-5-fluoro-4,4-dimethylpent-2-enenitrile]
16 | 1.25 to 10 | 70 to 75 | COc1cc(-c2cn(C)c(=O)c(C)c2C)cc(OC)c1CN1CCC(Cc2cccc3c2CCN(C(=O)/C(C#N)=C/C(C)(C)CF)[C@H]3C)CC1 (single isomer, unassigned) [Compound C60, (E/Z)-2-(5-((1-(2,6dimethoxy-4-(1,4,5-trimethyl-6-oxo-1,6-dihydropyridin-3-yl)benzyl)piperidin-yl)methyl)-1-methyl-1,2,3,4-tetrahydroisoquinoline-2-carbonyl)-5-fluoro-4,4-dimethylpent-2-enenitrile]
17 | < 1.25 | > 75 | CCC[C@H]1c2cccc(CN3CCN(Cc4c(OC)cc(-c5cn(C)c(=O)c(C)c5C)cc4OC)CC34CC4)c2CCN1C(=O)/C(C#N)=C/C(C)(C)C (single isomer, unassigned) [Compound C100, (E/Z)-2-(5-((7-(2,6-dimethoxy-4-(1,4,5-trimethyl-6-oxo-1,6-dihydropyridin-3-yl)benzyl)-4,7-diazaspiro[2.5]octan-4-yl)methyl)-1-propyl-1,2,3,4-tetrahydroisoquinoline-2-carbonyl)-4,4-dimethylpent-2-enenitrile]
